Results published in paper PMC4551797 (PLoS ONE, 2015).

What was measured:
[1] = tested on: C57BL/6 mice; assay: Oral glucose tolerance test, glucose only; details: 100 mg/kg oral, glucose 3 g/kg 15 min after compound
Method: For measurement of glucose only, overnight-fasted C57BL/6 mice in a normal light cycle were orally dosed with vehicle or compound, followed by an oral bolus of 3 g/kg glucose at 15 minutes post compound. At 0, 20, 40, 60, and 120 minutes post glucose dose, blood glucose was assessed via glucometers. Resulting raw data was used to generate AUCs. […] At 0, 15, 30, 60, and 120 minutes post glucose dose, blood glucose was assessed via glucometers. Resulting raw data was used to generate AUCs.

[2] = tested on: C57BL/6 mice; assay: Acute in vivo incretin secretion assay (plasma GLP-1 and PYY AUC); details: 100 mg/kg oral, fasted mice, 3-hour time course
From the text: Plasma was separated by centrifugation, aliquoted, and analyzed for GLP-1 (X-36) amide (Mesoscale Discovery) and total PYY (Millipore). Resulting raw data was used to generate area under the curve analyses (AUCs).

[3] = tested on: C57BL/6 mice; assay: Three-day study on GLP-1 and gallbladder filling (bile weight); assay type: in vivo, mouse; details: 100 mg/kg oral BID 3 days, 30 min after last dose
Method: C57BL/6 mice, Tgr5 KO mice, or their wild-type littermate controls were orally dosed with vehicle or compounds twice per day for 3 days, with overnight fasting performed on the evening of day 2. On the morning of day 3, animals were dosed orally with compounds and then euthanized by CO2 asphyxiation at 30 minutes after the fifth dose. Plasma was collected for analysis of GLP-1 (X-36) amide as mentioned above, followed immediately by incision into the abdominal cavity to remove and weigh bile from the gallbladder.
On the third day, compound was dosed in the morning followed 30 minutes later by measurement of bile filling (A) by use of a needle and syringe and GLP-1 (x-36) amide (B) by cardiac puncture.

[4] = tested on: gallbladder; details: cited from earlier work
[5] = Plasma compound levels after oral dosing (LC-MS/MS); details: C57BL/6, mouse, 100 mg/kg
[6] = tested on: C57BL/6 mice; assay: Oral glucose tolerance test with hormone measurement; assay type: in vivo, mouse; details: 10 mg/kg oral, glucose 3 g/kg, 1 hour
Method: For measurement of glucose only, overnight-fasted C57BL/6 mice in a normal light cycle were orally dosed with vehicle or compound, followed by an oral bolus of 3 g/kg glucose at 15 minutes post compound. At 0, 20, 40, 60, and 120 minutes post glucose dose, blood glucose was assessed via glucometers. Resulting raw data was used to generate AUCs. For measurement of hormones and glucose, overnight-fasted C57BL/6 mice acclimated for two weeks to a reverse light cycle were orally dosed with vehicle or compound, followed by an oral bolus of 3 g/kg glucose at 15 minutes post compound. At 0, 2, 5, 10, 20, 40, and 60 minutes post glucose dose, blood glucose was assessed via glucometers, followed immediately by collection of plasma for active GLP-1 (Mesoscale Discovery), insulin (Mesoscale Discovery), and total PYY. Glucose tolerance tests in diet-induced obese (DIO) C57BL/6 mice were performed in overnight-fasted animals dosed either acutely or after 2-week administration with vehicle or compound 18 at 60 mg/kg, followed 30 minutes post compound by an oral bolus of 2 g/kg glucose. At 0, 15, 30, 60, and 120 minutes post glucose dose, blood glucose was assessed via glucometers. Resulting raw data was used to generate AUCs.
To evaluate glucose, insulin, GLP-1, and PYY levels throughout the OGTT, each time-point consisted of a separate group of mice that were used to record glucose by use of a glucometer followed by terminal bleeds for measurement of active GLP-1, total PYY, and insulin. AUCs were then calculated for the entire hour of the OGTT. […] Changes in insulin AUCs were not increased with treatment of either sitagliptin or compound 18, likely due to the lower glucose levels reducing the drive for glucose-stimulated insulin secretion (Fig 5D).
Fig 5 Compound 18 increases GLP-1 and PYY and lowers the glucose and insulin excursions as compared to sitagliptin in an OGTT in C57BL/6 mice. […] Plasma was analyzed for active GLP-1 (A), total PYY (B), and insulin (D), while blood glucose was measured by glucometers (C).

What does the source list for `CC[C@H]1[C@@H](O)[C@@H]2[C@H](C[C@H](O)[C@]3(C)[C@@H]([C@H](C)C[C@H](C)C(=O)O)CC[C@@H]23)[C@@]2(C)CC[C@@H](O)C[C@@H]12` [INT-777, 6α-ethyl-23(S)-methylcholic acid, reference compound]?
effect on glucose tolerance in OGTT [1]: no detectable improvement of glucose tolerance; GLP-1 AUC increase over vehicle [2]: 2.8 fold over vehicle; PYY AUC increase over vehicle [2]: 1.6 fold over vehicle; bile weight (gallbladder filling) [3]: significant increase in bile weight; plasma GLP-1 levels [3]: no detectable increase in GLP-1; gallbladder filling with bile [4]: stimulated gallbladder filling with bile; AUC(0-t) [5]: 264 µM·h; Cmax [5]: 136 µM; Tmax [5]: 1.5 h

With `N[C@@H](CC(=O)N1CCn2c(nnc2C(F)(F)F)C1)Cc1cc(F)c(F)cc1F` [sitagliptin, reference compound] as the compound, how does the “insulin AUC during OGTT” value [6] read?
The value was “not increased”.
